In patent US20060281813A1, “Methods of treating hyperproliferative cell disorders” (priority 2003, published 2006):
Positions count from the first letter of the chain named.

Key:
ER+ or ER− tumor lines = settings: all the ER+ or ER− tumor lines examined; cited from earlier work
lung cancer [1] = assay: Example 7: lung cancer patients with disease progression on IRESSA alone; type: in vivo, human; settings: added to IRESSA, oral 100 mg/square meter, optionally calcitriol 0.1-1 mcg per day
[2] = tested on: F9 embryonal mouse teratocarcinoma cells; settings: in F9 cells; cited from earlier work
human RARα = target: T1, human RARα (Homo sapiens, UniProt P10276); settings: cited from earlier work
T1 sequence (P10276 1-462): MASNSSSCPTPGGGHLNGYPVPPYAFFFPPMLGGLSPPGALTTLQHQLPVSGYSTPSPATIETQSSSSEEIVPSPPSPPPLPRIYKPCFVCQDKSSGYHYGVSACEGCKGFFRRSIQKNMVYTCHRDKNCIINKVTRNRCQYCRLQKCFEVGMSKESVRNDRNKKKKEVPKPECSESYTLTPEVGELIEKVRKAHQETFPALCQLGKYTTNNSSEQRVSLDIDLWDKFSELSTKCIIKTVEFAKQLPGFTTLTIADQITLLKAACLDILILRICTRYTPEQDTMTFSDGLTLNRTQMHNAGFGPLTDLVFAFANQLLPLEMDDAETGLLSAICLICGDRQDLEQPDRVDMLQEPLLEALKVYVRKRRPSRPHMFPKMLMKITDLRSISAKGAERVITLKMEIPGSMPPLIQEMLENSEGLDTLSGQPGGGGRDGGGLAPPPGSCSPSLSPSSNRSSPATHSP

[3] = tested on: non small cell lung cancer; assay: Example 2: patient with non small cell lung cancer; type: in vivo, human; settings: 75 mg per day with IRESSA 250 mg per day for two months
Experimental: A patient suffering from non small cell lung cancer was treated with IRESSA® (250 mg per day) for two months. The disease progressed during the treatment and thae patient was continued on IRESSA® (250 mg per day) with daily dosage of 4-oxo-retinol (75 mg per day) for two months. The disease became stable and the patient continued taking IRESSA® (250 mg per day) for 4 more months without 4-oxo-retinol with a stale disease.

[4] = tested on: breast cancer, prostate cancer or leukemia; assay: Example 4: patients with breast cancer, prostate cancer or leukemia; type: in vivo, human; settings: oral 100 mg/square meter with oral IRESSA
RARγ = target: T2, RARγ (Mus musculus, UniProt P18911); settings: read-out: IC50, ability to displace all-trans RA; cited from earlier work
T2 sequence (P18911 1-458): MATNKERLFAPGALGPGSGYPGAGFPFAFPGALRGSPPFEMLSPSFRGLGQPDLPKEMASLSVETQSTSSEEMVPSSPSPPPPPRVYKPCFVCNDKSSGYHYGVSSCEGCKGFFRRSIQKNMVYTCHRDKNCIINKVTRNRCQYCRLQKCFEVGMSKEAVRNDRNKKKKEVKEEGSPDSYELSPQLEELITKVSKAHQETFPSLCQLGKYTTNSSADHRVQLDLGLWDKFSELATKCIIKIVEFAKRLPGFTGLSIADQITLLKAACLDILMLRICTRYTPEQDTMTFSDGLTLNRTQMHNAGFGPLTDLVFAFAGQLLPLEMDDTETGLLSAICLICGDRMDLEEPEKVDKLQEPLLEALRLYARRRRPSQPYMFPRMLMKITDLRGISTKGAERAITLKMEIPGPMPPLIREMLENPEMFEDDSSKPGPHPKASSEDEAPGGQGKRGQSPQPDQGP

F9 cells = settings: similar to all-trans RA; cited from earlier work
monomeric mouse RAR b = target: T3, monomeric mouse RAR b (Mus musculus, UniProt P22605); settings: read-out: IC50, ability to displace all-trans RA; cited from earlier work
T3 sequence (P22605 1-482): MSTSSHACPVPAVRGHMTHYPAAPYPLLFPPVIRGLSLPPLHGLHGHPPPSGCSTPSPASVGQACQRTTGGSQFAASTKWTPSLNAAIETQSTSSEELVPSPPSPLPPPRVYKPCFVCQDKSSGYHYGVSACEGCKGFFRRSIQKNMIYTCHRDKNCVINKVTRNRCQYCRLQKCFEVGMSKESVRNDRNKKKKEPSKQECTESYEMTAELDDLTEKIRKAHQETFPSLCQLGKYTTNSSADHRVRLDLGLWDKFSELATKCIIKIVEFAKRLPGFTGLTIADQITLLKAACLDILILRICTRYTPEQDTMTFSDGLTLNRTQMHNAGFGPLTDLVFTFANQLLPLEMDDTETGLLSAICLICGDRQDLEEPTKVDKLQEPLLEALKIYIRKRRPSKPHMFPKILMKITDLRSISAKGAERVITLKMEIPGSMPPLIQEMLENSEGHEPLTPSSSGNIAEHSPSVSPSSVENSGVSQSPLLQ

[5] = tested on: advanced head and neck cancer; assay: Example 5: patients with advanced head and neck cancer; type: in vivo, human; settings: oral 100 mg/square meter with oral IRESSA or intravenous C-225
Excerpt: Current systemic chemotherapy regimens are unable to prolong survival of patients with advanced head and neck cancer.

monomeric mouse RARa = target: T4, monomeric mouse RARa (Mus musculus, UniProt P11416); settings: read-out: IC50, ability to displace all-trans RA; cited from earlier work
T4 sequence (P11416 1-462): T1 sequence (P10276 1-462) with T43S, E150D, V169A, R347K, P427S, G431T, N453H, H460Q

[6] = target: T5, RARg ligand binding domain (Homo sapiens, UniProt P13631); settings: CV-1 cell transfectants, cited from earlier work
T5 construct: expressed in transfected cells; host or cells: CV-1 cells

[7] = tested on: retinoid receptor subtype; settings: competition with all-trans RA; cited from earlier work
lung cancer [8] = assay: Example 6: patients with lung cancer; type: in vivo, human; settings: oral 100 mg/square meter with oral IRESSA

T5 sequence (P04386 1-147 partner limits assumed, species assumed, one chain of several): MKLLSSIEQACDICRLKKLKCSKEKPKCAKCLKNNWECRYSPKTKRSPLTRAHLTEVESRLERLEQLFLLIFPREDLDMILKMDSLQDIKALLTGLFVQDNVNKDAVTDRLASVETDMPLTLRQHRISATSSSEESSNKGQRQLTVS

CC(C=CC1=C(C)C(=O)CCC1(C)C)=CC=CC(C)=CCO [4-oxo-retinol]
growth inhibition (ER+ or ER− tumor lines): growth inhibitory
tumor burden (lung cancer [1]): reduced tumor burden
half-life [2]: > 15 h
RARα-mediated transactivation (human RARα): potently induced transactivation
disease course [3]: stable
tumor burden versus IRESSA alone [4]: reduced tumor burden
IC50 (RARγ): 3200 nM
differentiation of F9 cells (F9 cells): induces differentiation
IC50 (monomeric mouse RAR b): 420 nM
survival rate versus IRESSA or C-225 alone [5]: better survival rate
IC50 (monomeric mouse RARa): 330 nM
activity on GAL4 chimeras by RAR ligand binding domain ([6]; chimera with ligand binding domain of RARg): highest activity
RARg activation compared with all-trans RA [6]: greater ability to induce RARg activation than all-trans RA
displacement of all-trans RA [7]: Neither compound efficiently displaced all-trans RA
tumor burden versus IRESSA alone (lung cancer [8]): reduced tumor burden
